Source: patent US9056876B2, “Substituted 1H-pyrazolo[3′,4′,4,5]thieno[2,3-b]pyridin-3-amine analogs as positive allosteric modulators of the muscarinic acetylcholine receptor M4” (VANDERBILT UNIVERSITY, priority 2011, dated 2015)

Molecular target: T1, mAChR M4 (UniProt P08173)
T1 construct: hM1 and hM4 cDNAs were purchased from Missouri S&T cDNA Resource
T1 sequence (P08173 1-479): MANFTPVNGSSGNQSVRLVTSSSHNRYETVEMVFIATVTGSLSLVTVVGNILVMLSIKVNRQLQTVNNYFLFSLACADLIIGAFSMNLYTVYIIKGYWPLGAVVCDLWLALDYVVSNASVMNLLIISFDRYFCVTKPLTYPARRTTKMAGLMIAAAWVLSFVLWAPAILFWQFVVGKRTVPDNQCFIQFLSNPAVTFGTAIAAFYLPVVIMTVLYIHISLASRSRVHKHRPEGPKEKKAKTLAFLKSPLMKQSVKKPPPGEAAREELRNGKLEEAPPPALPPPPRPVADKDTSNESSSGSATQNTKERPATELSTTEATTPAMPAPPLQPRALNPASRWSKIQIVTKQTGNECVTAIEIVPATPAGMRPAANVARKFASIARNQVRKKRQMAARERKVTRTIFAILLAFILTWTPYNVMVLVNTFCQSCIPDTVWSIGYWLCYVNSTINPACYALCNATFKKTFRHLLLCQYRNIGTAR
Test: mAChR M4 cell-based functional assay (calcium mobilization, Fluo-4, FDSS)
Settings: for Emax (%)*: % ACh maximum at 30 μM; for pEC50: positive allosteric modulator activity, EC20 acetylcholine response; for pEC50 / EC50: CHO-K1 cells; for EC50: positive allosteric modulator activity: concentration-dependent increase in the EC20 acetylcholine response, >10 μM estimated for low potency (no plateau)
Description: Chinese hamster ovary (CHO-K1) cells stably expressing rat (r)M1 were purchased from the American Type Culture Collection and cultured according to their indicated protocol. CHO cells stably expressing human (h)M2, hM3, and hM5 were described previously (Levey A I, et al., (1991) J Neurosci 11:3218-3226.); hM1 and hM4 cDNAs were purchased from Missouri S&T cDNA Resource; rM4 cDNA was provided by T. I. Bonner (National Institutes of Health, Bethesda, Md.). rM2 and rM3 were cloned from a rat brain cDNA library and sequence verified. hM1, rM2, rM3, hM4, and rM4 cDNAs were used to stably transfect CHO-K1 cells purchased from the American Type Culture Collection using Lipofectamine-2000. To make stable rM2, hM2, rM3, hM4, and rM4 cell lines for use in calcium mobilization assays, these cells also were stably transfected with a chimeric G-protein (Gqi5) (provided by B. R. Conklin, University of California, San Francisco) using Lipofectamine 2000. rM1, hM1, rM3, hM3, rM5, and hM5 cells were grown in Ham's F-12 medium containing 10% heat-inactivated fetal bovine serum (FBS), 20 mM HEPES, and 50 µg/mL G418 sulfate. rM2-Gqi5, hM2-Gqi5, and hM4-Gqi5 cells were grown in the same medium also containing 500 µg/mL Hygromycin B. Stable rM4-Gqi5 cells were grown in DMEM containing 10% heat-inactivated FBS, 20 mM HEPES, 400 µg/mL G418 sulfate, and 500 µg/mL Hygromycin B.
For high throughput measurement of agonist-evoked increases in intracellular calcium, CHO-K1 cells stably expressing the target muscarinic receptor were plated in growth medium lacking G418 and hygromycin at 15,000 cells/20 μL/well in Greiner 384-well black-walled, tissue culture (TC)-treated, clear-bottom plates (VWR). Cells were incubated overnight at 37° C. and 5% CO2. The next day, cells were washed using an ELX 405 (BioTek) with four washes (80 μL) of assay buffer then aspirated to 20 μL. Next, […] of 16 μM Fluo-4/acetoxymethyl ester (Invitrogen, Carlsbad, Calif.) prepared as a 2.3 mM stock in DMSO and mixed in a 1:1 ratio with 10% (w/v) Pluronic F-127 and diluted in assay buffer was added to the wells and the cell plates were incubated for 50 min at 37° C. and 5% CO2. Dye was removed by washing with the ELX 405 (four 80 μL washes of assay buffer) then aspirated to 20 μL. Compound master plates were formatted in an 11 point CRC format (1:3 dilutions) in 100% DMSO with a starting concentration of 10 mM using the BRAVO liquid handler (Agilent). Test compound CRCs were then transferred to daughter plates (240 nL) using the Echo acoustic plate reformatter (Labcyte, Sunnyvale, Calif.) and then diluted into assay buffer (40 μL) to a 2× stock using a Thermo Fisher Combi (Thermo Fisher Scientific, Waltham, Mass.).
Calcium flux was measured using the Functional Drug Screening System (FDSS) 6000 (Hamamatsu Corporation, Tokyo, Japan) as an increase in the fluorescent static ratio. Compounds were applied to cells (20 μL, 2×) using the automated system of the FDSS 6000 at 4 s into the 300 s protocol and the data were collected at 1 Hz. At 144 s into the 300 s protocol, 10 μL of an EC20 concentration of the muscarinic receptor agonist acetylcholine was added (5×), followed by the addition of 12 μL an EC80 concentration of acetylcholine at the 230 s time point (5×). Agonist activity was analyzed as a concentration-dependent increase in calcium mobilization upon compound addition. Positive allosteric modulator activity was analyzed as a concentration-dependent increase in the EC20 acetylcholine response. Antagonist activity was analyzed as a concentration-dependent decrease in the EC80 acetylcholine response. Concentration-response curves were generated using a four-parameter logistical equation in XLfit curve fitting software (IDBS, Bridgewater, N.J.) for Excel (Microsoft, Redmond, Wash.) or Prism (GraphPad Software, Inc., San Diego, Calif.). […]

Emax (%)* [%]	pEC50	EC50 [nM]	Structure (SMILES)
44	<5.00	> 10000	Cc1cc(C)c2c(n1)sc1c(NC(=O)C3CC3)nn(C)c12 [Compound 46, N-(1,6,8-trimethyl-1H-pyrazolo[3′,4′:4,5]thieno[2,3-b]pyridin-3-yl)cyclopropanecarboxamide]
43	5.54	2900	CCC(=O)Nc1nn(C)c2c1sc1nc(C)cc(C)c12 [Compound 47, N-(1,6,8-trimethyl-1H-pyrazolo[3′,4′:4,5]thieno[2,3-b]pyridin-3-yl)propionamide]
38	<5.00	> 10000	COc1cc(OC)cc(C(C)Nc2nn(C)c3c2sc2nc(C)cc(C)c23)c1 (stereo not drawn) [Compound 48, N-(1-(3,5-dimethoxyphenyl)ethyl)-1,6,8-trimethyl-1H-pyrazolo[3′,4′:4,5]thieno[2,3-b]pyridin-3-amine]
37	5.47	3400	Cc1ccc2c(n1)sc1c(NCc3ccc(Cl)cc3)n[nH]c12 [Compound 49, N-(4-chlorobenzyl)-6-methyl-1H-pyrazolo[3′,4′:4,5]thieno[2,3-b]pyridin-3-amine]
57	5.60	2500	Cc1ccc2c(n1)sc1c(NCc3ccccc3)n[nH]c12 [Compound 50, N-benzyl-6-methyl-1H-pyrazolo[3′,4′:4,5]thieno[2,3-b]pyridin-3-amine]
73	5.89	1300	Cc1ccc2c(n1)sc1c(NCC3CC3)nn(C)c12 [Compound 51, N-(cyclopropylmethyl)-1,6-dimethyl-1H-pyrazolo[3′,4′:4,5]thieno[2,3-b]pyridin-3-amine]
64	5.82	1500	Cc1ccc2c(n1)sc1c(NCc3ccco3)nn(C)c12 [Compound 52, N-(furan-2-ylmethyl)-1,6-dimethyl-1H-pyrazolo[3′,4′:4,5]thieno[2,3-b]pyridin-3-amine]
70	6.08	840	Cc1ccc2c(n1)sc1c(NCc3ccccc3)nn(C)c12 [Compound 53, N-benzyl-1,6-dimethyl-1H-pyrazolo[3′,4′:4,5]thieno[2,3-b]pyridin-3-amine]
71	6.06	880	Cc1ccc2c(n1)sc1c(NCCC(C)C)nn(C)c12 [Compound 54, N-isopentyl-1,6-dimethyl-1H-pyrazolo[3′,4′:4,5]thieno[2,3-b]pyridin-3-amine]
63	6.02	960	COc1ccc(CNc2nn(C)c3c2sc2nc(C)ccc23)cc1 [Compound 55, N-(4-methoxybenzyl)-1,6-dimethyl-1H-pyrazolo[3′,4′:4,5]thieno[2,3-b]pyridin-3-amine]
56	<5.00	> 10000	Cc1ccc2c(n1)sc1c(NCc3ccc(Cl)cc3)nn(C)c12 [Compound 56, N-(4-chlorobenzyl)-1,6-dimethyl-1H-pyrazolo[3′,4′:4,5]thieno[2,3-b]pyridin-3-amine]
70	6.72	190	Cc1cc(C)c2c(n1)sc1c(NCc3ccccc3F)nn(C)c12 [Compound 57, N-(2-fluorobenzyl)-1,6,8-trimethyl-1H-pyrazolo[3′,4′:4,5]thieno[2,3-b]pyridin-3-amine]
37	<5.00	> 10000	Cc1cc(C)cc(CNc2nn(C)c3c2sc2nc(C)cc(C)c23)c1 [Compound 58, N-(3,5-dimethylbenzyl)-1,6,8-trimethyl-1H-pyrazolo[3′,4′:4,5]thieno[2,3-b]pyridin-3-amine]
57	5.60	2500	Cc1ccc(CNc2nn(C)c3c2sc2nc(C)cc(C)c23)c(C)c1 [Compound 59, N-(2,4-dimethylbenzyl)-1,6,8-trimethyl-1H-pyrazolo[3′,4′:4,5]thieno[2,3-b]pyridin-3-amine]
63	<5.00	> 10000	Cc1cc(C)c2c(n1)sc1c(NCc3ccc(F)c(F)c3)nn(C)c12 [Compound 60, N-(3,4-difluorobenzyl)-1,6,8-trimethyl-1H-pyrazolo[3′,4′:4,5]thieno[2,3-b]pyridin-3-amine]
33	6.35	450	COc1ccc(CNc2nn(C)c3c2sc2nc(C)cc(C)c23)c(OC)c1 [Compound 61, N-(2,4-dimethoxybenzyl)-1,6,8-trimethyl-1H-pyrazolo[3′,4′:4,5]thieno[2,3-b]pyridin-3-amine]
74	6.19	640	Cc1ccnc2sc3c(NCc4ccncc4)nn(C)c3c12 [Compound 62, 1,8-dimethyl-N-(pyridin-4-ylmethyl)-1H-pyrazolo[3′,4′:4,5]thieno[2,3-b]pyridin-3-amine]
80	5.77	1700	COc1ccc(CNc2nn(C)c3c2sc2nccc(C)c23)cc1 [Compound 63, N-(4-methoxybenzyl)-1,8-dimethyl-1H-pyrazolo[3′,4′:4,5]thieno[2,3-b]pyridin-3-amine]
83	6.85	140	Cc1cc(C)c2c(n1)sc1c(NC3CCCC3)nn(C)c12 [Compound 64, N-cyclopentyl-1,6,8-trimethyl-1H-pyrazolo[3′,4′:4,5]thieno[2,3-b]pyridin-3-amine]
78	6.00	1000	Cc1cc(C)c2c(n1)sc1c(NC3CCOCC3)nn(C)c12 [Compound 65, 1,6,8-trimethyl-N-(tetrahydro-2H-pyran-4-yl)-1H-pyrazolo[3′,4′:4,5]thieno[2,3-b]pyridin-3-amine]
73	5.92	1200	Cc1cc(C)c2c(n1)sc1c(NC3CCCCC3)nn(C)c12 [Compound 66, N-cyclohexyl-1,6,8-trimethyl-1H-pyrazolo[3′,4′:4,5]thieno[2,3-b]pyridin-3-amine]
80	5.96	1100	Cc1ccc2c(n1)sc1c(NCc3ccncc3)nn(C)c12 [Compound 67, 1,6-dimethyl-N-(pyridin-4-ylmethyl)-1H-pyrazolo[3′,4′:4,5]thieno[2,3-b]pyridin-3-amine]
